Experimental data reported in article PMC9887206, “Cationic biopolymer decorated Asiatic Acid and Centella asiatica extract incorporated liposomes for treating early-stage Alzheimer’s disease: An In-vitro and In-vivo investigation” (F1000Research, 2022).

Key:
[1] = In-vitro antioxidant activity (DPPH inhibition); type: biochemical; conditions: at 50 μg/mL, n ≥ 3
Method: The prepared formulations' and AA's abilities to neutralise free radicals were determined in vitro and compared with standard ascorbic acid. In this method, free radical DPPH (2,2-diphenyl-1-picrylhydrazyl) was selected as described by Jamuna S. et al. 1.5 mL of 0.1mM free radial DPPH was treated with 3.5mL of 10 to 50 μg/mL concentrated methanolic solution of AA, CAE, optimised CLCAE, and CLAA. The absorbance of all the samples was measured at 518 nm through ELISA plate reader (version AM-2100, USA). The percentage of DPPH inhibition was measured through the formula. %Inhibition of DPPH=Absorptioncontrol−Absorptionsample/Absorptioncontrol×100

[2] = Oral bioavailability study, AA in rat serum; type: in vivo, wistar rats
Method: The sum of drug availability after oral intake of AA, CLCAE, and CLAA was performed on three groups of 150-200g wistar rats (n=6). Prior to the procedure, the animals underwent an overnight fast with unlimited access to water. Group I was treated with a single dose of AA (100 mg/kg,p.o.) whereas group II, and III animals received single dose of optimised CLCAE and CLAA (~100 mg/k.g AA, p.o.), respectively. After the dosing, the animals were partially anesthetised using […], from the retro-orbital plexus 1 mL of blood samples were collected in centrifuge tubes at a predetermined time of up to 8 h. To isolate the contents, the serum sample was spun up at 3000 rpm for 10 min. The AA was quantified by RP-HPLC.
Initially, the mixture of 1 mL serum and 5 mL methanol were taken in a volumetric flask at room temperature. The sample was properly mixed before being heated for 30 min at 55°C. After that, a 10 mL flask was made up with methanol and centrifugation for 30 min at 5000 rpm (Remi Elektrotechnik Ltd. India). 20 μL of filtered supernatant was taken for analysis.
Depends on plasma concentration-time curve parameters, the C max and T max of CLCAE and CLAA were analysed. The pharmacokinetic parameters were successfully interpreted through PK/PD computer software version 4.1, USA, which includes measurement drug plasma concentration from zero to last measured sample (AUC 0 -t) and from zero to infinity (AUC 0-∞) measurement of drug elimination half-life (K 1/2el) and elimination rate constant (K el) clearance (Cl) and volume of distribution (V d). The relative bioavailability (F) of both the formulations was determined using the following formula. F=Total amount of drug absorbed from formulation(Amaxformulation)/Total amount of drug absorbed from pureAAAmaxpureAA×100 F=VdXKelXAUC0−∞formulation/VdXKelXAUC0−∞pureAA×100

[3] = cited from earlier work
[4] = Ex vivo drug permeation, non-everted gut sac; type: in vitro ADME, rats; conditions: throughout 8 hours, non-everted rat intestinal sac
Method: The drug intestinal permeation studies of both the optimised formulations were determined using non-everted gut sac procedure. ^, [40] The rats were sacrificed and small intestine was treated with oxygenated saline. The intestine was split into […] sacs that were 8 cm long and loaded with optimised CLCAE and CLAA (~100 mg AA). The thread was used to bind the sac's ends and located in a conical flask filled with ringer’s solution of pH 9 (10 ml). 37°C temperature was kept constant in a water bath shaker at 75 rpm with 5% CO 2 aeration. Every 20 min, for a maximum of 8 h, the samples were removed and substituted with the fresh media. RP-HPLC was used to analyse the screened sample.

[5] = In-vitro drug release, Franz diffusion cell with dialysis membrane; type: physicochemical; conditions: in around 10 hours
Method: The % drug release from CLCAE and CLAA were measured through Franz diffusion cell using sigma dialysis membrane and the release rate was compared with AA and CAE. 1 mL sample (100 mg/mL) was kept on one side, while the other part of the membrane was filled with the acidic buffer pH 1.2 (200 mL) dissolution media for two hours. It was then replaced with phosphate buffer pH 7.2 (2–24 hours) with 0.25% w/v sodium lauryl sulphate as two separate media to simulate the stomach and intestinal conditions. The media were sustained at the temperature of 37°C on a magnetic stirrer. A 5 mL sample was withdrawn with the specific intervals and the condition of the sink was kept constant by refilling the same volume of media. Samples were analysed and compared using RP-HPLC at 210 nm. To assess the drug release strategy from the optimised CLAA, the data were fitted to various in vitro kinetic release models like Korsmeyer-Peppas, Higuchi, Zero and First Order models. ^, [36]

[6] = rat p.o; cited from earlier work
[7] = Wistar, single oral dose ~100 mg/kg AA

SMILES	Percentage of inhibition of DPPH [1] [%]	Tmax ([2]; Wistar, 100 mg/kg, single oral dose, read-out: Time of maximum serum concentration) [h]	AUC(0-t) [2, 7] [ng·h/mL]	Cmax [2, 7] [ng/mL]	half-life ([2]; Wistar, single oral dose ~100 mg/kg AA, read-out: Elimination half-life (t1/2el) (converted)) [h]	k el ([2]; Wistar, single oral dose ~100 mg/kg AA, read-out: Elimination rate constant (Kel) (converted)) [s⁻¹]	Maximum serum concentration ([2]; single oral dose) [µg/mL]	Clearance (Cl) ([2]; single oral dose ~100 mg/kg AA) [L h ^−1]	Volume of distribution (Vd) ([2]; single oral dose ~100 mg/kg AA) [L]	Solubility in water [3]	BCS class ([3]; poor aqueous solubility and permeability)	Amount of drug permeated (ex vivo) [4] [%]	In vitro drug release [5] [%]	LD50 [6] [mg/kg]
C[C@H]1[C@H](C)CC[C@]2(C(=O)O)CC[C@]3(C)C(=CC[C@@H]4[C@@]5(C)C[C@@H](O)[C@H](O)[C@@](C)(CO)[C@@H]5CC[C@]43C)[C@H]12 [AA, Asiatic acid]	65.4 ±1.2	4	40500 ± 1160	3430 ± 120	1.97 ± 0.1	0.000142	3.43 ± 0.12	0.55 ± 0.002	1.62 ± 0.26	insoluble in water	BCS IV	30.90	65.34	
O=C1O[C@H]([C@@H](O)CO)C(O)=C1O [ascorbic acid, reference compound]	90.75 ± 1.45													
ClCCl [dichloromethane]														1200
